Data from US7709548B2, “Method for manufacturing monosulfonium salt, cationic polymerization initiator, curable composition, and cured product” (San-Apro Limited, priority 2003, dated 2010).

Experiment: Storage stability test (viscosity change of mixture with UVR-6110 stored at 80° C.)
Format: physicochemical
Conditions: measured at 25° C.; for Viscosity after storage for 1 week / Viscosity after storage for 2 weeks / Viscosity after storage for 4 weeks / Viscosity after storage for 6 weeks: stored at 80° C.
Procedure: As an acceleration test for storage stability, a mixture of the cationic polymerization initiator solution and a cationic polymerizable compound was evaluated by measuring its change in the viscosity when stored at a temperature of 80° C.
5 parts of a propylene carbonate solution of the cationic polymerization initiators used in each of Test Examples 5 and 9 was added to 100 parts UVR-6110 (the alicyclic epoxy resin, supra), and 200 g of this mixture was put in a 250 mL brown plastic bottle and stored in an 80° C. thermostat.
3 parts of a propylene carbonate solution of the cationic polymerization initiator used in each of Test Examples 12 and 15 were mixed with 100 parts UVR-6110, and 200 g of this mixture taken in a 250 ml brown plastic bottle and stored in an 80° C. thermostat.
The above-mentioned mixture was adjusted to 25° C. in a thermostatic tank that had been adjusted to 25° C., and the viscosity of the mixture was measured at the start of storage and after one, two, four, and six weeks.

[1] = 5 parts initiator solution per 100 parts UVR-6110
[2] = 3 parts initiator solution per 100 parts UVR-6110

## F[P-](F)(F)(F)(F)F.c1ccc(Sc2ccc([S+](c3ccccc3)c3ccccc3)cc2)cc1 [Example 5, (4-phenylthiophenyl)diphenylsulfonium hexafluorophosphonate]
[1]
  Viscosity after storage, At start: 480 mPa · s
  Viscosity after storage for 1 week: 480 mPa · s
  Viscosity after storage for 2 weeks: 480 mPa · s
  Viscosity after storage for 4 weeks: 500 mPa · s
  Viscosity after storage for 6 weeks: 500 mPa · s

## (4-phenylthiophenyl)diphenylsulfonium hexafluoroantimonate [Example 8]
[2]
  Viscosity after storage, At start: 470 mPa · s
  Viscosity after storage for 1 week: 470 mPa · s
  Viscosity after storage for 2 weeks: 470 mPa · s
  Viscosity after storage for 4 weeks: 510 mPa · s
  Viscosity after storage for 6 weeks: 650 mPa · s
